These results are taken from PubChem BioAssay AID248 (DTP/NCI, 2004).

Inconclusive results and toxic doses are left out.

The test relates to L1210 leukemia ip in BDF1 mice, survival T/C. The test can be described thus: NCI In Vivo Anticancer Drug Screen. Data for tumor model L1210 Leukemia (intraperitoneal) in B6D2F1 (BDF1) mice. The note with it: endpoint: mean survival time, higher = longer survival. The method in brief: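 Value reflects the ratio of survival in compound-treated mice to survival in vehicle-treated controls, with both groups carrying the same transplanted tumor.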

Where [1] appears, read: dose: 100.0 mg/kg/injection, schedule: Q01DX009 (ip), vehicle: saline with Tween-80.
Where [2] appears, read: dose: 200.0 mg/kg/injection, schedule: Q01DX009 (ip), vehicle: saline with Tween-80.
The mark [3] stands for this setting: dose: 100.0 mg/kg/injection, schedule: Q04DX003 (ip), vehicle: Klucel (hydroxypropylcellulose) (HPC).
The mark [4] stands for this setting: dose: 200.0 mg/kg/injection, schedule: Q04DX003 (ip), vehicle: Klucel (hydroxypropylcellulose) (HPC).
[5] abbreviates: dose: 400.0 mg/kg/injection, schedule: Q04DX003 (ip), vehicle: Klucel (hydroxypropylcellulose) (HPC).
Setting [6] is: dose: 100.0 mg/kg/injection, schedule: Q04DX002 (ip), vehicle: saline.
Where [7] appears, read: dose: 200.0 mg/kg/injection, schedule: Q04DX002 (ip), vehicle: saline.
Where [8] appears, read: dose: 100.0 mg/kg/injection, schedule: Q04DX003 (ip), vehicle: saline with Tween-80.
[9] abbreviates: dose: 200.0 mg/kg/injection, schedule: Q04DX003 (ip), vehicle: saline with Tween-80.
The mark [10] stands for this setting: dose: 400.0 mg/kg/injection, schedule: Q04DX003 (ip), vehicle: saline with Tween-80.
[11] abbreviates: dose: 100.0 mg/kg/injection, schedule: Q04DX002 (ip), vehicle: Klucel (hydroxypropylcellulose) (HPC).
Where [12] appears, read: dose: 200.0 mg/kg/injection, schedule: Q04DX002 (ip), vehicle: Klucel (hydroxypropylcellulose) (HPC).
Setting [13] is: dose: 400.0 mg/kg/injection, schedule: Q04DX002 (ip), vehicle: Klucel (hydroxypropylcellulose) (HPC).

On to `CC(/C=N/NC1=NCCN1)=N/NC1=NCCN1`, for which the T/C (dose: 15.7 mg/kg/injection, schedule: Q01DX Z (ip), vehicle: carboxymethylcellulose (CMC)) was 104 % of control; the T/C (dose: 31.5 mg/kg/injection, schedule: Q01DX Z (ip), vehicle: carboxymethylcellulose (CMC)) was 101 % of control; the T/C (dose: 63.0 mg/kg/injection, schedule: Q01DX Z (ip), vehicle: carboxymethylcellulose (CMC)) is 102 % of control; the T/C (dose: 126.0 mg/kg/injection, schedule: Q01DX Z (ip), vehicle: carboxymethylcellulose (CMC)) is 103 % of control; the T/C (dose: 127.0 mg/kg/injection, schedule: Q01DX Z (ip), vehicle: carboxymethylcellulose (CMC)) was 106 % of control.

`CC(C)=CCC/C(C)=C/C=C1C(=O)NC(=S)NC1=O`: the T/C (dose: 50.0 mg/kg/injection, schedule: Q01DX009 (ip), vehicle: saline with Tween-80) was 117 % of control; the T/C under setting [1] was 103 % of control; the T/C under setting [2] was 103 % of control.

Regarding `CC(C)(C)N=O`, the T/C was 103 % of control (dose: 100.0 mg/kg/injection, schedule: Q01DX001 (ip), vehicle: Klucel (hydroxypropylcellulose) (HPC)) and 114 % of control (dose: 200.0 mg/kg/injection, schedule: Q01DX001 (ip), vehicle: Klucel (hydroxypropylcellulose) (HPC)).

Regarding `COc1ccc(NC(=O)/C=C/c2ccc([N+](=O)[O-])cc2)cc1S(=O)(=O)F`, the T/C reads like this: under setting [3], 98 % of control; under setting [4], 107 % of control; under setting [5], 98 % of control.

With `CCOc1ccccc1NC(=O)NCC(=O)N/N=C/c1ccc(O)c(OC)c1`, the T/C is 95 % of control (dose: 100.0 mg/kg/injection, schedule: Q01DX009 (ip), vehicle: Klucel (hydroxypropylcellulose) (HPC)); 90 % of control (dose: 200.0 mg/kg/injection, schedule: Q01DX009 (ip), vehicle: Klucel (hydroxypropylcellulose) (HPC)); 91 % of control (dose: 400.0 mg/kg/injection, schedule: Q01DX009 (ip), vehicle: Klucel (hydroxypropylcellulose) (HPC)).

As to `O=C(O)c1nnn(Cc2ccccc2)c1C(=O)O`, the T/C under setting [6] was 104 % of control; the T/C under setting [7] is 104 % of control; the T/C (dose: 400.0 mg/kg/injection, schedule: Q04DX002 (ip), vehicle: saline) is 96 % of control.

For the compound `O=S(=O)(N/N=C/c1cc(Cl)ccc1O)c1cc(Cl)c(Cl)cc1Cl`, the T/C is, setting by setting: (dose: 5.0 mg/kg/injection, schedule: Q01DX Z (ip), vehicle: other) 107 % of control; (dose: 10.0 mg/kg/injection, schedule: Q01DX Z (ip), vehicle: other) 110 % of control; (dose: 20.0 mg/kg/injection, schedule: Q01DX Z (ip), vehicle: other) 105 % of control.

For `CCCCCCCCCCCNC(=O)CCl`, the T/C is 91 % of control (dose: 75.0 mg/kg/injection, schedule: Q04DX003 (ip), vehicle: Klucel (hydroxypropylcellulose) (HPC)); 92 % of control (dose: 150.0 mg/kg/injection, schedule: Q04DX003 (ip), vehicle: Klucel (hydroxypropylcellulose) (HPC)); 89 % of control (dose: 300.0 mg/kg/injection, schedule: Q04DX003 (ip), vehicle: Klucel (hydroxypropylcellulose) (HPC)).

Take `CN(C)C(=O)Sc1cccc([N+](=O)[O-])c1`: the T/C is 109 % of control under setting [8], 111 % of control under setting [9] and 103 % of control under setting [10].

In the case of `CCOC(=O)c1cnc(SC)nc1NCc1ccco1`, the T/C reads like this: under setting [1], 95 % of control; under setting [8], 100 % of control; under setting [2], 97 % of control; under setting [9], 97 % of control; (dose: 400.0 mg/kg/injection, schedule: Q01DX009 (ip), vehicle: saline with Tween-80) 106 % of control; under setting [10], 92 % of control.

Turning to `CC(=O)OCC1OC(n2cnc([N+](=O)[O-])c2C#N)C(OC(C)=O)C1OC(C)=O` (stereo not given), the T/C (dose: 50.0 mg/kg/injection, schedule: Q01DX001 (ip), vehicle: saline) is 102 % of control; the T/C (dose: 100.0 mg/kg/injection, schedule: Q01DX001 (ip), vehicle: saline) was 108 % of control; the T/C (dose: 200.0 mg/kg/injection, schedule: Q01DX001 (ip), vehicle: saline) was 102 % of control; the T/C (dose: 400.0 mg/kg/injection, schedule: Q01DX001 (ip), vehicle: saline) was 92 % of control.

With `Cc1cccc(NC(=O)C2CCCCC2C(=O)O)c1C` (stereo not given), the T/C runs as follows: under setting [11], 100 % of control; under setting [12], 107 % of control; under setting [13], 92 % of control.

Take `CC(C#N)CC12CCCCC1CC/C(=C\c1ccccc1)C2=O` (stereo not given): the T/C under setting [3] was 102 % of control, the T/C under setting [4] was 96 % of control and the T/C under setting [5] is 96 % of control.

Consider `NC(=O)NC1CC1(c1ccccc1)c1ccccc1` (stereo not given), for which the T/C was 105 % of control (dose: 42.0 mg/kg/injection, schedule: Q01DX009 (ip), vehicle: other); 111 % of control (dose: 72.0 mg/kg/injection, schedule: Q01DX009 (ip), vehicle: other); 105 % of control (dose: 120.0 mg/kg/injection, schedule: Q01DX009 (ip), vehicle: other); 93 % of control (dose: 200.0 mg/kg/injection, schedule: Q01DX009 (ip), vehicle: other).

Turning to `CCC(NC(=O)CCl)C(=O)O` (stereo not given), the T/C was 120 % of control under setting [6] and 103 % of control under setting [7].

For the compound `FC1(F)SC2CCCCCCC2C1(F)F` (stereo not given), the T/C runs as follows: (dose: 12.5 mg/kg/injection, schedule: Q01DX009 (ip), vehicle: Klucel (hydroxypropylcellulose) (HPC)) 98 % of control; (dose: 12.5 mg/kg/injection, schedule: Q04DX003 (ip), vehicle: Klucel (hydroxypropylcellulose) (HPC)) 97 % of control; (dose: 25.0 mg/kg/injection, schedule: Q01DX009 (ip), vehicle: Klucel (hydroxypropylcellulose) (HPC)) 104 % of control; (dose: 25.0 mg/kg/injection, schedule: Q04DX003 (ip), vehicle: Klucel (hydroxypropylcellulose) (HPC)) 101 % of control; (dose: 50.0 mg/kg/injection, schedule: Q01DX009 (ip), vehicle: Klucel (hydroxypropylcellulose) (HPC)) 100 % of control; (dose: 50.0 mg/kg/injection, schedule: Q04DX003 (ip), vehicle: Klucel (hydroxypropylcellulose) (HPC)) 95 % of control.

Take `O=[N+]([O-])c1cccc(S/N=C/c2ccccc2O)c1`: the T/C under setting [11] is 102 % of control, the T/C under setting [12] was 97 % of control and the T/C under setting [13] is 108 % of control.

In the case of `COc1ccc(C2Nc3cc(Cl)ccc3NC3=C2C(=O)CC(C)(C)C3)cc1` (stereo not given), the T/C runs as follows: under setting [11], 105 % of control; under setting [12], 94 % of control; under setting [13], 102 % of control.

Regarding `Cc1c(NC(=O)Nc2ccc(C3=NCCN3)cc2)cccc1NC(=O)Nc1ccc(C2=NCCN2)cc1`, the T/C is, setting by setting: (dose: 0.62 mg/kg/injection, schedule: Q01DX Z (ip), vehicle: carboxymethylcellulose (CMC)) 92 % of control; (dose: 1.25 mg/kg/injection, schedule: Q01DX Z (ip), vehicle: carboxymethylcellulose (CMC)) 98 % of control; (dose: 2.5 mg/kg/injection, schedule: Q01DX Z (ip), vehicle: carboxymethylcellulose (CMC)) 102 % of control; (dose: 8.5 mg/kg/injection, schedule: Q01DX Z (oral), vehicle: carboxymethylcellulose (CMC)) 109 % of control; (dose: 9.0 mg/kg/injection, schedule: Q01DX Z (ip), vehicle: water) 205 % of control; (dose: 13.5 mg/kg/injection, schedule: Q01DX Z (oral), vehicle: carboxymethylcellulose (CMC)) 121 % of control. Moreover, the T/C runs as follows: (dose: 18.0 mg/kg/injection, schedule: Q01DX Z (ip), vehicle: water) 160 % of control; (dose: 20.0 mg/kg/injection, schedule: Q01DX Z (oral), vehicle: carboxymethylcellulose (CMC)) 111 % of control; (dose: 30.0 mg/kg/injection, schedule: Q01DX Z (oral), vehicle: carboxymethylcellulose (CMC)) 109 % of control; (dose: 36.0 mg/kg/injection, schedule: Q01DX Z (ip), vehicle: water) 111 % of control; (dose: 45.0 mg/kg/injection, schedule: Q01DX Z (oral), vehicle: carboxymethylcellulose (CMC)) 114 % of control; (dose: 62.0 mg/kg/injection, schedule: Q01DX Z (ip), vehicle: saline) 124 % of control. Further, the T/C (dose: 125.0 mg/kg/injection, schedule: Q01DX Z (ip), vehicle: saline) was 96 % of control.
